Measured values: patent US20070275936A1, “Formulations and Treatment Methods” (priority 1998, published 2007)

Experiment: Oral bioavailability of BrEA formulations in rats
Format: in vivo
Description: In vivo experiments were conducted to determine the bioavailability of BrEA via oral administration using different formulations. BrEA was (1) solubilized in soya oil, vitamin E oil, a mixture of vitamin E and cremophore or (2) BrEA was micronized and combined with or without a surfactant. These formulations are described below. The formulations were administered orally to rats and BrEA levels were determined in the blood, liver, spleen, kidney, and the lymph nodes. In the studies using micronized BrEA, the brain was evaluated for drug uptake. Twenty-four hour urine and feces were collected when BrEA was solubilized in vitamin E and soya oils and vitamin E mixed with Cremophore. The data from these studies indicate that BrEA enters into the lymphatics but is eliminated rapidly from the other tissues. The amount of ^14C radioactivity recovered in the feces 24 hours after administration was 78 to 83%.
BrEA (5 mg in 1.0 mL of soya oil or vitamin E oil) supplemented with ^14C-labelled BrEA was administered intragastrically to rats. Solubilization of BrEA in the vitamin E or soya oil was facilitated with 50 μL ethanol. Animals (3/time point) were assayed at 1.5, 3, 5.5, and 24 hours after administration and the ^14C-radioactivity was measured in the blood, liver, spleen, kidney, lymph nodes and 24 hour feces and urine. […] The uptake is greater with soya oil than vitamin E oil in the blood, liver, and lymph nodes.
BrEA (5 mg in 1.0 mL of a vitamin E and cremophore) supplemented with ^14C-labelled BrEA was administered intragastrically to rats. Solubilization of BrEA in the vitamin E-cremophore mixture was facilitated by the adding 60 μL ethanol. Animals (4/time point) were sacrificed at 2, 3, 5.5, and 24 hours and ^14C-radioactivity was measured in the blood, liver, spleen, kidney, lymph nodes and 24 hour feces and urine. […] Judging from the values in plasma, liver and lymph nodes, it appears that drug uptake is slower compared with soy oil or vitamin E and its presence in the tissues is more persistent.
Rats, in groups of three males, were orally administered 1.0 mL of 0.9% NaCl containing 10 or 32 mg BrEA micronized with a surfactant, Synperonic PE/F 127 (2.5% wt/wt). Rats were examined at 1.5, 5 and 24 hours after administration. Blood, liver, spleen, kidney, lymph nodes, and brain were assayed for ^14C radioactivity. The levels of BrEA in the blood, in comparison to the experiments with BrEA in Vitamin E oil and soya, were higher, 0.3% at 1.5 hours, and increased after 5 hours to 0.8% and 0.9% of the 10 and 32 mg dose, respectively. Additionally, the values in the lymph nodes were similar to those measured at 1.5 hours and the levels were sustained at 5 hours (5.3 and 5.0%) and 24 hours (3.7 and 3.1%) for the 10 and 32 mg dose, respectively (refer to Table 6).
In a repeated dose experiment, rats were intragastrically administered 1.0 mL 0.9% NaCl containing 2 mg BrEA micronized with Synperonic PE/F 127 (2.5% wt/wt) every 6 to 16 hours. Rats (3/time point) were sacrificed at 40, 72, 84, 90 and 96 hours after the first administration. Blood, liver, spleen, kidney and lymph nodes were assayed for ^14C radioactivity.
Rats, in groups of three males, were orally administered 1.0 mL of 0.9% NaCl containing 2, 4 or 10 mg BrEA micronized without a surfactant. Rats were sacrificed at 1.5, 5 and 24 hours after administration and blood, liver, spleen, kidney, lymph nodes and brain were assayed for ^14C radioactivity. The concentration of BrEA micronized without a surfactant in the observed tissues was lower than BrEA plus a surfactant.

[1] = micronized with surfactant, 10 mg dose, 5 hours
[2] = micronized with surfactant, 32 mg dose, 5 hours

C[C@]12CC[C@H](O)C[C@@H]1CC[C@@H]1[C@@H]2CC[C@]2(C)C(=O)[C@H](Br)C[C@@H]12 [BrEA, 16α-bromo-3β-hydroxy-5α-androstane-17-one]
levels of BrEA in the blood (BrEA micronized with Synperonic PE/F 127, 1.5 hours): 0.3% | levels of BrEA in the blood [1]: 0.8% | values in the lymph nodes [1]: 5.3% | values in the lymph nodes (micronized with surfactant, 10 mg dose, 24 hours): 3.7% | levels of BrEA in the blood [2]: 0.9% | values in the lymph nodes [2]: 5.0% | values in the lymph nodes (micronized with surfactant, 32 mg dose, 24 hours): 3.1%
